Experimental data as given in patent US20200031920A1, “Combination Therapy for Treating Cancer” (The George Washington University, priority 2017, published 2020).
Entries after “also recorded” stand apart in the source; their conditions may differ.

Assays:
Assay type in all cases: cell-based
SKOV3 cells = experiment: cell viability / proliferation (SRB) assay, SKOV3 parental cells
Description: (§1) FIG. 1 is a line graph showing the proliferation of SKOV3 parental and SKOV3 CR cells treated with increasing concentrations of cisplatin for five days. Data are represented as mean±SD from three independent experiments performed in triplicate. Indicated IC50 values represent the mean of two independent experiments performed in triplicate.
(§2) FIG. 13 is a line graph showing the proliferation of SKOV3 parental and SKOV3 CR cells treated with increasing concentrations of cisplatin and 0.4 μM LY2784544 for five days. Data are represented as mean±SD from three independent experiments performed in triplicate.
(§3) Cisplatin resistant ovarian cancer cell lines were generated using procedures as described previously. Jazaeri et al., Mol Cancer Ther 12: 1958-1967 (2013). Ovarian cancer cells SKOV3 were cultured in the medium with cisplatin (Sigma-Aldrich) for three weeks, followed by release to cisplatin-free medium for another three weeks. In the next cycle, the cisplatin treatment was repeated in the medium with an increased concentration of cisplatin. After six-cycle treatment, cells were identified that were able to grow in the medium with a high concentration of cisplatin. These cisplatin resistant cells were named as SKOV3 CR (FIG. 1).
(§4) The results obtained from combinational HTS were confirmed by testing whether LY2784544 overcomes cisplatin resistance in ovarian cancer cells using multiple assays. […] The Combination index (CI), which quantitatively describes the interaction between drugs including synergism (CI<1), additive effect (CI=1), and antagonism (CI>1), was calculated.

SKOV3 CR cells [1] = experiment: cell viability / proliferation (SRB) assay, cisplatin resistant SKOV3 CR cells
Description: as §1, §2, §3, §4

IGROV1 CR cells = experiment: cell proliferation assay, cisplatin resistant IGROV1 CR cells
Source text: as §1, with “60” for “1”, “IGROV1” for “SKOV3”, “5 days (left).” for “five days.”
FIG. 61 is a bar graph showing the synergistic effects of LY2784544 and cisplatin in IGROV1 CR cells (right). CI values are presented above the bars. CI<1 indicates synergism, […] indicates additive effect, and CI>1 indicates antagonism.
Using a similar approach as described in FIG. 1, another cisplatin resistant ovarian cancer cell line IGROV1 CR was raised from its cisplatin sensitive parental cell IGROV1 cells. […] The cell proliferation of IGROV1 CR cells treated with cisplatin, LY2784544 or both LY2784544 and cisplatin was examined.

PEO4 cells = experiment: cell proliferation assay, PEO4 cells
Source text: as §1, with “63” for “1”, “PEO1” for “SKOV3 parental”, “PEO4” for “SKOV3 CR”, “5” for “five”
FIG. 64 is a bar graph showing the synergistic effects of LY2784544 and cisplatin in PEO4 cells. CI values are presented above the bars. CI<1 indicates synergism, CI=1 indicates additive effect, and CI>1 indicates antagonism.
For ovarian cancer, recurrence more than 12 months after initial chemotherapy was considered as platinum sensitive. PEO4 was derived from the patient 10 months later when they had progressive disease and had become cisplatin resistant.

SKOV3 CR cells [2] = experiment: apoptosis (Annexin V and Propidium Iodide staining, cleaved PARP)
Description: FIG. 2 is an illustration showing representative flow plots (A) and a bar graph (B) of SKOV3 and SKOV3 CR cells treated with cisplatin for 48 h and analyzed for Annexin V and Propidium Iodide staining by flow cytometry (A) and quantified apoptosis percentage (B). Data are represented as mean±SD from three independent experiments performed in triplicate. **p<0.01. FIG. 23 is an illustration showing the immunoblotting for the indicated targets in SKOV3 CR cells treated with vehicle (DMSO), 3 μM LY2784544, 5 μM cisplatin, or the combination for 48 hr. FIG. 24 is an illustration showing representative flow plots of SKOV3 CR cells treated with vehicle, 3 μM LY2784544, 5 μM cisplatin, or the combination (combo) for 48 hr and analyzed for Annexin V and Propidium Iodide staining by flow cytometry. Since cisplatin exerts its anticancer effect mainly through its ability to cause DNA damage, resulting in apoptosis, the apoptotic cells in both SKOV3 and SKOV CR cells were measured using Annexin V and Propidium Iodide staining. […] To test whether SKOV3 CR cells are resistant to cisplatin-induced apoptosis in vivo, both SKOV3 and SKOV3 CR cells were injected into nude mice to form xenograft tumors. Once the tumor size reached 100-150 mm^3, cisplatin was given to mice by intraperitoneal injections twice a week for 2 weeks. Three days after treatment, the apoptosis in tumors was examined by TUNEL staining. […] Currently, carboplatin is a more commonly used platinum drug employed clinically to treat ovarian patients. Ozols et al., J Clin Oncol 21: 3194-3200 (2003). Thus, it was tested whether SKOV3 CR cells are also resistant to carboplatin (Sigma-Aldrich). The effects of LY2784544 on the JAK2/STAT5 signaling pathway in both SKOV3 and SKOV3 CR cells were examined.

[3] = test system: phosphorylation of JAK2 (Y1007/1008) and STAT5 (Y694); experiment: western blot of JAK2/STAT5 signaling
Description: FIG. 22 is an illustration showing that LY2784544 down-regulates JAK2/STAT5 signaling in SKOV3 CR cells. Cells were treated with the indicated concentrations of LY2784544 for 48 hr.
FIG. 23 is an illustration showing the immunoblotting for the indicated targets in SKOV3 CR cells treated with vehicle (DMSO), 3 μM LY2784544, 5 μM cisplatin, or the combination for 48 hr.
To investigate the molecular mechanism by which the JAK2-mediated pathway regulates cisplatin resistance of ovarian cancer, the activation of the JAK2-mediated pathway in paired sensitive cell line (SKOV3, IGROV1, PEO1) and resistant cell lines (SKOV3 CR, IGROV1 CR, PEO4) was examined by western blot. Compared to cisplatin sensitive cells SKOV3 or IGROV1, the JAK2 protein levels are not changed in cisplatin resistant cells SKOV3 CR, IGROV1 CR, or PEO4.
The effects of LY2784544 on the JAK2/STAT5 signaling pathway in both SKOV3 and SKOV3 CR cells were examined.

[4] = SKOV3 CR cells, 3 μM LY2784544 plus 5 μM cisplatin, 48 hr

## Cc1cc(Nc2cc(CN3CCOCC3)c3nc(C)c(Cc4ccc(Cl)cc4F)n3n2)n[nH]1 [LY2784544]
SKOV3 cells; combination with cisplatin, SKOV3 cells, CI<1 synergism
  medium CI (combination index): 0.93
SKOV3 cells; medium with cisplatin or without cisplatin
  effect on cell proliferation of SKOV3: did not affect the cell proliferation of SKOV3
SKOV3 CR cells [1]; SKOV3 CR cells
  cisplatin IC50 shift ability (comparison of the three hits): better cisplatin IC50 shift ability than MLN4924 or NSC319726
SKOV3 CR cells [1]; combination with cisplatin at different doses, FIG. 13: 0.4 μM LY2784544, five days
  sensitization of SKOV3 CR cells to cisplatin (proliferation): significantly increased the sensitivity of SKOV3 CR cells to cisplatin; also recorded: re-sensitized SKOV3 CR cells to cisplatin
SKOV3 CR cells [1]; combination with cisplatin, SKOV3 CR cells, CI<1 synergism
  medium CI (combination index): 0.69
IGROV1 CR cells; combination with cisplatin, IGROV1 CR cells
  medium CI (combination index): 0.71
PEO4 cells; combination with cisplatin, PEO4 cells
  medium CI (combination index): 0.34
SKOV3 CR cells [2]; SKOV3 CR cells, 3 μM LY2784544, 48 hr
  apoptosis (cleaved PARP), single agent: did not cause apoptosis
SKOV3 CR cells [2]; [4]
  apoptosis (cleaved PARP), combination with cisplatin: induced apoptotic cell death
  apoptotic cells (Annexin V and Propidium Iodide), combination with cisplatin: significant increase of apoptotic cells
[3]; both SKOV3 and SKOV3 CR cells, 48 hr
  phosphorylation of JAK2 and STAT5: significantly reduced the phosphorylation of JAK2 as well as the phosphorylation of STAT5

## N.N.[Cl][Pt][Cl] [cisplatin]
SKOV3 cells; SKOV3 parental cells, 5 days
  IC50: 2000 nM
SKOV3 CR cells [1]; SKOV3 CR cells, 5 days
  IC50: 10400 nM
IGROV1 CR cells; 5 days
  fold increase of IC50, IGROV1 CR vs parental IGROV1: 2.9 fold
IGROV1 CR cells; IGROV1 CR cells, 5 days
  IC50: 1500 nM
PEO4 cells; 5 days
  fold increase of IC50, PEO4 vs PEO1: 6.2 fold
PEO4 cells; PEO4 cells, 5 days
  IC50: 1990 nM
SKOV3 CR cells [2]; cisplatin for 48 h, Annexin V and Propidium Iodide staining
  apoptosis, SKOV3 versus SKOV3 CR cells: induced more apoptosis in SKOV3 cells than in SKOV3 CR cells
[3]; SKOV3 parental cells, various small doses and times of cisplatin
  JAK2/STAT5 signaling after cisplatin treatment: JAK2/STAT5 signaling was activated
